Reference: ChEMBL document CHEMBL1122800, “Synthesis of a tricyclic aphidicolin analogue that inhibits DNA synthesis in vitro” (J Med Chem, 1984)
The source made the active and inactive calls. The calls are words filed in the database; no cut-off is given here.

Test system: Nucleic Acid
Test: Ability of compound to inhibit DNA synthesis against the uptake of [3H]thymidine in freshly seeded cultures of SV-40 transformed WI-38 human lung fibroblast at a concentration 0.15 ug/mL.

Row | Structure (SMILES) | inhibition
1 | C[C@@]1(CO)[C@H](O)CC[C@@]2(C)[C@H]1CC[C@H]1C[C@@H]3C[C@@]12CC[C@]3(O)CO | 50%
2 | C[C@@]1(CO)C(O)CC[C@]2(C)C3CC(O)CC3CC[C@@H]12 (some centres not stated) | 50%

Test system: Nucleic Acid
Test: Ability of compound to inhibit DNA synthesis against the uptake of [3H]thymidine in freshly seeded cultures of SV-40 transformed WI-38 human lung fibroblast; NA = no activity

Row | Structure (SMILES) | inhibition
3 | C[C@]12CCC(O)[C@@](C)(CO)[C@@H]1CCC1CC(O)C=C12 (some centres not stated) | inactive
4 | C[C@]12CCC(O)[C@@](C)(CO)[C@@H]1CCC1C[C@H](O)C[C@@H]12 (some centres not stated) | inactive
5 | C[C@]12CCC(O)[C@@](C)(CO)[C@@H]1CCC1CC(=O)C[C@@H]12 (some centres not stated) | inactive
6 | C[C@@]1(CO)C(O)CC[C@]2(C)C3CC(=O)CC3CC[C@@H]12 (some centres not stated) | inactive
7 | C[C@]12CCC(O)[C@@](C)(CO)[C@@H]1CCC1CC(=O)C=C12 (some centres not stated) | inactive
